Patent US6720346B2, “Thiazole benzamide derivatives and pharmaceutical compositions for inhibiting cell proliferation” (Agouron Pharmaceuticals, Inc., priority 2001, dated 2004)
pIC50, pKi: −log10 of the molar value. Counter-ions that a name gives are not always drawn.

Assays:
[1] = test system: HCT-116 cell line; assay: Inhibition of cell growth, MTT tetrazolium salt assay; assay type: cell-based; details: for pIC50: Homo sapiens, HCT-116, 120 h, MTT, three to five days
Protocol: Inhibition of cell growth was measured using the tetrazolium salt assay, which is based on the ability of viable cells to reduce 3-(4,5-dimethylthiazol-2-yl)-2,5-[2H]-diphenyltetrazolium bromide (MTT) to formazan (Mossman, Journal of Immunological Methods, 65, (1983), pp. 55-58). The water-insoluble purple formazan product was then detected spectrophotometrically. The HCT-116 cell line was used as a representative cancer cell line and grown in 96-well plates. Cells were plated in McCoy's 5A Medium at a volume of 135 μl/well. Plates were incubated for four hours before addition of inhibitor compounds. Different concentrations of inhibitor compounds were added in 0.5% (v/v) dimethylsulfoxide (15 μL/well), and cells were incubated at 37° C. (5% CO2) for three to five days. At the end of the incubation, MTT was added to a final concentration of 0.2 mg/mL, and cells were incubated for 4 hours more at 37° C. After centrifugation of the plates and removal of medium, the absorbance of the formazan (solubilized in dimethylsulfoxide) was measured at 540 nm. The concentration of inhibitor compound causing 50% (IC50) or 90% ([…]) inhibition of growth was determined from the linear portion of a semi-log plot of inhibitor concentration versus percent inhibition. All results were compared to control cells treated only with 0.5% (v/v) dimethylsulfoxide.

[2] = molecular target: T1, human CDK4/cyclin D3 (Homo sapiens, UniProt P11802); assay: Inhibition of CDK4/cyclin D retinoblastoma kinase activity (Ki; % inhibition); assay type: biochemical; details: for pKi: apparent Ki, CDK4/cyclin D3, Rb substrate
T1 construct: made in house; host or cells: insect cells co-infected with baculovirus vectors
T1 sequence (P11802 whole entry): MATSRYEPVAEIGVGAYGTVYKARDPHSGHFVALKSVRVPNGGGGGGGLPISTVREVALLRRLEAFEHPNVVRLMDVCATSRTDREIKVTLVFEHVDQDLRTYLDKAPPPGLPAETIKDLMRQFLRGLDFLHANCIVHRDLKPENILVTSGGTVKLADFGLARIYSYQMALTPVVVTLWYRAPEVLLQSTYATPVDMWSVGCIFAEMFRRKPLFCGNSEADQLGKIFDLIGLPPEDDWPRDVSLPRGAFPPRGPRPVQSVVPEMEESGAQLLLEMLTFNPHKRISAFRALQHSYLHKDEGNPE
T1 sequence (P30281 1-264 partner limits assumed): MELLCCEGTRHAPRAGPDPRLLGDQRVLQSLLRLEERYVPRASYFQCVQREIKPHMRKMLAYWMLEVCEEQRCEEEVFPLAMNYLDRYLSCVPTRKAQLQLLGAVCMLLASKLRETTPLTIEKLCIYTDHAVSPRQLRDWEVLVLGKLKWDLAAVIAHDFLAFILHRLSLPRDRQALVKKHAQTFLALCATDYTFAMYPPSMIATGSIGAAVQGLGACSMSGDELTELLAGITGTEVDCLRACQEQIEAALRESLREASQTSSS
Protocol: (§1) Cyclin-dependent kinase activity was measured by quantifying the enzyme-catalyzed, time-dependent incorporation of radioactive phosphate from [^32P]ATP or [^33P]ATP into a protein substrate. Unless noted otherwise, assays were performed in 96-well plates in a total volume of 50 μL, in the presence of 10 mM HEPES (N-[2-hydroxyethyl]piperazine-N′-[2-ethanesulfonic acid]) (pH 7.4), 10 mM MgCl2, 25 μM adenosine triphosphate (ATP), 1 mg/mL ovalbumin, 5 μg/mL leupeptin, 1 mM dithiothreitol, 10 mM β-glycerophosphate, 0.1 mM sodium vanadate, 1 mM sodium fluoride, 2.5 mM ethylene glycol-bis(β-aminoethyl ether)-N,N,N′N′-tetraacetic acid (EGTA), 2% (v/v) dimethylsulfoxide, and 0.03-0.4 μCi [^32/33P]ATP per reaction. Reactions were initiated with enzyme, incubated at 30° C., and terminated after 20 minutes by the addition of ethylenediaminetetraacetic acid (EDTA) to 250 mM. The phosphorylated substrate was then captured on a nitrocellulose or phosphocellulose membrane using a 96-well filtration manifold, and unincorporated radioactivity was removed by repeated washing with 0.85% phosphoric acid. Radioactivity was quantified by exposing the dried membranes to a phosphorimager.
(§2) Compounds from combinatorial libraries were screened from 96-well plates for % inhibition of CDK activity at 30 nM theoretical compound concentration. Inhibition was measured relative to control wells that contained all reaction components including 2% (v/v) DMSO but no compound, after subtraction of background radioactivity measured in the absence of enzyme. Apparent Ki values of discrete compounds were measured by assaying enzyme activity in the presence of different inhibitor compound concentrations and subtracting the background radioactivity measured in the absence of enzyme. The kinetic parameters (kcat, Km for ATP) were measured for each enzyme under the usual assay conditions by determining the dependence of initial rates on ATP concentration. Inhibition data were fit to an equation for competitive inhibition using Kaleidagraph (Synergy Software), or were fit to an equation for competitive tight-binding inhibition using the software KineTic (BioKin, Ltd.).
A complex of human CDK4 and genetically truncated (1-264) cyclin D3 was purified using traditional biochemical chromatographic techniques from insect cells that had been co-infected with the corresponding baculovirus expression vectors (see e.g., Meijer and Kim, “Chemical Inhibitors of Cyclin-Dependent Kinases,” Methods in Enzymol., 283 (1997), pp. 113-128.). The enzyme complex (5 nM) was assayed with 0.3-0.5 μg of purified recombinant retinoblastoma protein fragment (Rb) as a substrate. The engineered Rb fragment (residues 386-928 of the native retinoblastoma protein; 62.3 kDa) contains the majority of the phosphorylation sites found in the native 106-kDa protein, as well as a tag of six histidine residues for ease of purification. Phosphorylated Rb substrate was captured by microfiltration on a nitrocellulose membrane and quantified using a phosphorimager as described above. For measurement of tight-binding inhibitors, the assay duration was extended to 60 minutes, during which the time-dependence of product formation was linear and initial rate conditions were met.

[3] = molecular target: T2, CDK2/cyclin A (Homo sapiens, UniProt P24941); assay: Inhibition of CDK2/cyclin A retinoblastoma kinase activity (Ki; % inhibition); assay type: biochemical; details: for pKi: apparent Ki, CDK2/cyclin A, Rb substrate
T2 construct: made in house; host or cells: CDK2: insect cells (baculovirus); cyclin A: E. coli
Protocol: as §1, §2
CDK2 was purified using published methodology (Rosenblatt et al., “Purification and Crystallization of Human Cyclin-dependent Kinase 2,” J. Mol. Biol., 230, 1993, pp. 1317-1319) from insect cells that had been infected with a baculovirus expression vector. […] A complex of CDK2 and proteolyzed cyclin A was prepared and purified by gel filtration. The substrate for this assay was the same Rb substrate fragment used for the CDK4 assays, and the methodology of the CDK2/delta cyclin A and the CDK4/delta cyclin D3 assays was essentially the same, except that CDK2 was present at 10 nM or 19 nM. The duration of the assay was 60 or 75 minutes, during which the time-dependence of product formation was linear and initial rate conditions were met.

[4] = HCT-116 cells, 0.25 μM compound

Row | CDK4 % Inhibition at 0.03 μM ([2]; 0.03 μM compound) [%] | CDK2 % Inhibition at 0.03 μM ([3]; 0.03 μM compound) [%] | CDK4 % Inhibition at 0.03 μM ([2]; at 0.03 μM) [%] | CDK2 % Inhibition at 0.03 μM ([3]; at 0.03 μM) [%] | SMILES | HCT-116 % Inhibition at 0.1 μM ([1]; HCT-116 cells, 0.1 μM compound) [%] | HCT-116 % Inhibition at 0.25 μM [1, 4] [%] | HCT-116 % Inhibition at 0.25 μM ([1]; HCT-116, at 0.25 μM) [%] | further results
1 | 27 | 32 |  |  | Nc1nc(Nc2ccc(C(=O)NCCc3c[nH]c4ccccc34)cc2)sc1C(=O)c1c(F)cccc1F [Example G271] | 8 | 49 |  | 
2 |  |  | 19 | 13 | COCCNC(=O)c1ccc(Nc2nc(N)c(C(=O)c3c(F)cccc3F)s2)cc1 [Example G164] |  |  | 59 | HCT-116 % Inhibition at 0.1 μM ([1]; HCT-116, at 0.1 μM): 0%
3 | 27 | 15 |  |  | CCN(CC)CCCC(C)NC(=O)c1ccc(Nc2nc(N)c(C(=O)c3c(F)cccc3F)s2)cc1 (stereo not drawn) [Example G239] | 21 | 50 |  | 
4 |  |  | 21 | 14 | Nc1nc(Nc2ccc(C(=O)NCC3CCCCC3)cc2)sc1C(=O)c1c(F)cccc1F [Example G173] |  |  | 54 | HCT-116 % Inhibition at 0.1 μM ([1]; HCT-116, at 0.1 μM): 18%
5 | 16 | 11 |  |  | CC[C@H](NC(=O)c1ccc(Nc2nc(N)c(C(=O)c3c(F)cccc3F)s2)cc1)c1ccccc1 [Example G214] | 15 | 52 |  | 
6 | 0 | −7 |  |  | CCCCN(CCCC)C(=O)c1ccc(Nc2nc(N)c(C(=O)c3c(F)cccc3F)s2)cc1 [Example G314] | 9 | 47 |  | 
7 |  |  | 18 | −3 | CC(C)C(CO)NC(=O)c1ccc(Nc2nc(N)c(C(=O)c3c(F)cccc3F)s2)cc1 (stereo not drawn) [Example G102] |  |  | 55 | HCT-116 % Inhibition at 0.1 μM ([1]; HCT-116, at 0.1 μM): 18%
8 | 8 | −17 |  |  | CN(C)CCN1CCN(C(=O)c2ccc(Nc3nc(N)c(C(=O)c4c(F)cccc4F)s3)cc2)CC1 [Example G382] | 17 | 47 |  | 
9 |  |  | 13 | −6 | CC(CCc1ccccc1)NC(=O)c1ccc(Nc2nc(N)c(C(=O)c3c(F)cccc3F)s2)cc1 (stereo not drawn) [Example G133] |  |  | 47 | HCT-116 % Inhibition at 0.1 μM ([1]; HCT-116, at 0.1 μM): 0%
10 | 17 | 28 |  |  | Nc1nc(Nc2ccc(C(=O)Nc3ccc4[nH]ccc4c3)cc2)sc1C(=O)c1c(F)cccc1F [Example G227] | 17 | 84 |  | 
11 | 10 | −6 |  |  | CCSCCNC(=O)c1ccc(Nc2nc(N)c(C(=O)c3c(F)cccc3F)s2)cc1 [Example G283] | 16 | 75 |  | 
12 |  |  | 24 | 24 | CCC(CO)NC(=O)c1ccc(Nc2nc(N)c(C(=O)c3c(F)cccc3F)s2)cc1 (stereo not drawn) [Example G156] |  |  |  | HCT-116 % Inhibition at 0.1 μM ([1]; HCT-116, at 0.1 μM, 0.1 µM): 0%; HCT-116 % Inhibition at 0.25 μM ([1]; HCT-116, at 0.25 μM, 0.25 µM): 61%
13 | 9 | −12 |  |  | CCCN(CCC#N)C(=O)c1ccc(Nc2nc(N)c(C(=O)c3c(F)cccc3F)s2)cc1 [Example G364] | 20 | 40 |  | 
14 |  |  | 0 | 10 | COc1cc(NC(=O)c2ccc(Nc3nc(N)c(C(=O)c4c(F)cccc4F)s3)cc2)cc(OC)c1 [Example G86] |  |  | 73 | HCT-116 % Inhibition at 0.1 μM ([1]; HCT-116, at 0.1 μM): 39%

Further lines, the molecule ahead of its results:

Row | SMILES | CDK4 % Inhibition at 0.03 μM ([2]; 0.03 μM compound) [%] | CDK2 % Inhibition at 0.03 μM ([3]; 0.03 μM compound) [%] | CDK4 % Inhibition at 0.03 μM ([2]; at 0.03 μM) [%] | CDK2 % Inhibition at 0.03 μM ([3]; at 0.03 μM) [%] | HCT-116 % Inhibition at 0.1 μM ([1]; HCT-116 cells, 0.1 μM compound) [%] | HCT-116 % Inhibition at 0.25 μM [1, 4] [%] | HCT-116 % Inhibition at 0.25 μM ([1]; HCT-116, at 0.25 μM) [%] | further results
15 | C[C@H](CN1CCCCC1)NC(=O)c1ccc(Nc2nc(N)c(C(=O)c3c(F)cccc3F)s2)cc1 [Example A46, 4-[4-Amino-5-(2,6-difluoro-benzoyl)-thiazol-2-ylamino]-N-(1R-methyl-2-piperidin-1-yl-ethyl)-benzamide Trifluoroacetate Salt] |  |  |  |  |  |  |  | pIC50 [1]: 7.07; pKi [2]: 7.82; pKi [3]: 6.66
16 | COc1ccc(NC(=O)c2ccc(Nc3nc(N)c(C(=O)c4c(F)cccc4F)s3)cc2)c(OC)c1 [Example G45] |  |  | 16 | 16 |  |  | 89 | 
17 | CN(CCO)C(=O)c1ccc(Nc2nc(N)c(C(=O)c3c(F)cccc3F)s2)cc1 [Example G17] |  |  | 7 | 2 |  |  | 45 | 
18 | CC1(C)CCC(CNC(=O)c2ccc(Nc3nc(N)c(C(=O)c4c(F)cccc4F)s3)cc2)N1 (stereo not drawn) [Example A48, 4-[4-Amino-5-(2,6-difluoro-benzoyl)-thiazol-2-ylamino]-N-(5,5-dimethyl-pyrrolidin-2RS-yl-methyl)-benzamide Hydrochloride Salt] |  |  |  |  |  |  |  | pIC50 [1]: 6.24; pKi [2]: 8.30; pKi [3]: 7.26
19 | Nc1nc(Nc2ccc(C(=O)Nc3ccc4ncccc4c3)cc2)sc1C(=O)c1c(F)cccc1F [Example G75] |  |  | 15 | 21 |  |  | 64 | 
20 | Nc1nc(Nc2ccc(C(=O)Nc3cccc(Cl)c3)cc2)sc1C(=O)c1c(F)cccc1F [Example G76] |  |  | 7 | 7 |  |  | 61 | 
21 | Nc1nc(Nc2ccc(C(=O)N3CCCC3)cc2)sc1C(=O)c1c(F)cccc1F [Example G47] |  |  | 6 | −15 |  |  | 53 | 
22 | Nc1nc(Nc2ccc(C(=O)N[C@@H]3CCN(Cc4ccccc4)C3)cc2)sc1C(=O)c1c(F)cccc1F [Example C365] | 22 | 8 |  |  | 34 | 93 |  | 
23 | CCCCN(CC#N)C(=O)c1ccc(Nc2nc(N)c(C(=O)c3c(F)cccc3F)s2)cc1 [Example G9] |  |  | 2 | −1 |  |  | 46 | 
24 | CN(C)C(=O)CN(C)C(=O)c1ccc(Nc2nc(N)c(C(=O)c3c(F)cccc3F)s2)cc1 [Example G5] |  |  | −3 | −23 |  |  | 47 | 
